Experiment [1] deals with T1, σ1 receptor (Cavia porcellus, UniProt Q60492).
T1 construct: thawed membrane preparation of guinea pig brain; tissue Harlan-Winkelmann, Borchen, Germany (animal organs); host or cells: guinea pig brain membrane homogenate
The note with it: azapropellanes 9, already reported; cited from earlier work.

The target in experiment [2] is T2, σ2 receptor (Rattus norvegicus, UniProt Q5U3Y7).
T2 construct: The thawed rat liver membrane preparation; tissue Harlan-Winkelmann, Borchen, Germany (animal organs); host or cells: rat liver membrane homogenate
T2 sequence (Q5U3Y7 1-176): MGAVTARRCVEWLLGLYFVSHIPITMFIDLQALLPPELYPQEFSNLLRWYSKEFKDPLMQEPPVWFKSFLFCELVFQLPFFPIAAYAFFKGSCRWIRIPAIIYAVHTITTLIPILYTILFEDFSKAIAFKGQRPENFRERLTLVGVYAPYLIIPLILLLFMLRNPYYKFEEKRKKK
The settings on record: azapropellanes 9, already reported; cited from earlier work.

Experiment [3] concerns the target T1, σ1 receptor. Briefly: σ1 receptor binding assay, radioligand [3H]-(+)-pentazocine, guinea pig brain membrane preparation. The note with it: σ1 over σ2.

T1 sequence (Q60492 whole entry): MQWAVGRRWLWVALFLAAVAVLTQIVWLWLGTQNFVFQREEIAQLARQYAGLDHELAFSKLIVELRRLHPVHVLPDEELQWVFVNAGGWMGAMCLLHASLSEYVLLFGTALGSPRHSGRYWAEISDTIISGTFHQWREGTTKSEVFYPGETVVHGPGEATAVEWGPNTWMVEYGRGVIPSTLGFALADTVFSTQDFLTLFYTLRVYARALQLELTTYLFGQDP

As a reminder, the Ki is a measure of affinity in units of concentration, obtained from inhibition or displacement. In the case of `c1ccc(CN2CC34CCCCC3(CCC4)C2)cc1` (stereo not drawn) [9a], the Ki is 17 ± 12 nM in experiment [1] and 190 nM in experiment [2]. Moreover, in experiment [3], the “selectivity for the σ1 receptor over the σ2 receptor” value is reported as “at least 10 fold”.

(Values after paper PMC8199339, “Propellanes as Rigid Scaffolds for the Stereodefined Attachment of σ-Pharmacophoric Structural Elements to Achieve σ Affinity” (International Journal of Molecular Sciences, 2021).)
